Where a name gives a salt, the structure may show the parent alone.
Tests used:
[1] = Microsomal stability, rat; type: in vitro ADME; settings: rat liver microsomes, 37° C.
Experimental: (§1) A solution of a compound of formula I at a final substrate concentration of […] and human, cynomolgus monkey or rat liver microsomes at final P450 concentrations of 0.18, 0.175 and 0.25 nmol/ml, respectively, is incubated in 0.1 M potassium phosphate buffer at pH 7.4 in 96-well micro-titre plates at 37° C. for 3 min in a shaking water bath. A cofactor solution containing MgCl2, Glucose-6-phosphate, NADPH, and Glucose-6-phosphate dehydrogenase is added to each sample (half the total incubation volume/sample) and the total incubation mixture is incubated for 0 and 30 min. (An n=3 samples is incubated for each compound). After each time point, an equal volume of CH3CN is added. The samples are mixed by vortexing and the plates are centrifuged at 3000 rpm for 20 min. The supernatant is analyzed by Liquid Chromatography Mass Spectrometry (LCMS) for parent drug and/or metabolites using an appropriate analytical method.

[2] = Microsomal stability, monkey; type: in vitro ADME, cynomolgus monkey; settings: monkey liver microsomes, 37° C.
Experimental: as §1

[3] = Microsomal stability, human; type: in vitro ADME; settings: human liver microsomes, 37° C.
Experimental: as §1

| melting point [°C] | % remaining after 30 min. [1] [%] | % remaining after 30 min. [2] [%] | % remaining after 30 min. [3] [%] | SMILES |
| --- | --- | --- | --- | --- |
| 234 to 235 |  |  |  | C[C@H](NC(=O)c1ccc(CC2CCN(C3CCCCC3)CC2)cc1)c1ccc(F)cc1 (as salt: HCl) [Example 2] |
|  | 79 | 80 | 80 | C[C@H](NC(=O)c1ccc(CC2CCN(C3CCCCC3)CC2)cc1)c1ccc(F)cc1 [Example 2] |
